Measured values reported in US12329799B2, “Peptidyl inhibitors of calcineurin-NFAT interaction” (Ohio State Innovation Foundation, priority 2018, dated 2025).
Positions of bridges follow the written chain, without caps; N, C: chain ends. Non-standard residues stand in square brackets, D forms with d. Residues, ends and D or L forms follow the SMILES beside them. Chains are numbered I, II in the order given. *: point of attachment. Benzoyl(2,3-Cl2) = O=C(c1cccc(Cl)c1Cl)*; 2Nal = N[C@@H](Cc1ccc2ccccc2c1)C(=O)O; Tle = CC(C)(C)[C@H](N)C(=O)O; βAla = NCCC(=O)O

Assays:
Calcineurin (GST-CN) = target: T1, Calcineurin (GST-CN) (Homo sapiens, UniProt Q08209); assay: Direct binding of FITC-labeled peptides to CN by fluorescence anisotropy/polarization
T1 construct: made in house; host or cells: E. coli BL21
T1 sequence (Q08209 2-347 limits assumed): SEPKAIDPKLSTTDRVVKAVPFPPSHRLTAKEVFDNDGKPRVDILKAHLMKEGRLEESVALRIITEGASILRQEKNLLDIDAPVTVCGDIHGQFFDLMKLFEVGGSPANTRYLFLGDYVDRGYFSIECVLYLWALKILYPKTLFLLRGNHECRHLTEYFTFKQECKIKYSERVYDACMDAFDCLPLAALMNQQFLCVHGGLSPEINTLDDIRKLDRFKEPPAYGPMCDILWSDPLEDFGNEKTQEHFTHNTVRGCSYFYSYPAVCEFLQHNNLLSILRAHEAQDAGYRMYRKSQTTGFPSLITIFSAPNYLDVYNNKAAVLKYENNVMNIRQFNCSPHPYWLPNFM
Protocol: To facilitate concentration determination and binding analysis by fluorescence anisotropy (FA), a dipeptide Tyr-Lys was added to the C-terminus of ZIZIT (SEQ ID NO:1) and the lysine side chain was labeled with fluorescein isothiocyanate (FITC). The resulting peptide,
Fluorescence Polarization. Fluorescence polarization (FP) experiments were carried out to measure binding affinity in both direct and competitive binding experiments using GST-CN and peptides prepared as mentioned previously. For direct binding, 50 nM FITC-labeled peptide was prepared in PBS, pH 7.4 containing 5 mM DTT and 0.01% Triton-X100 and then added to GST-CN diluted in PBS containing 0.01% Triton-X100. Solutions were incubated for 1 h at RT with gentle mixing and then pipetted into black 384-well microplates. Fluorescence polarization was measured on a TECAN Infinite M1000 plate reader and titration curves were fitted using both KaelidaGraph v 3.6 and GraphPad PRISM to the equation:
[formula] • where FP is the measured fluorescence polarization, Amin is the minimum FP value, Amax is the maximum FP signal, Qb is the quantum yield of the bound fluorophore, Qf is the quantum yield of the free fluorophore, L is the ligand concentration, KD is the dissociation constant and x is the protein concentration.

HeLa cells = assay: Cytosolic delivery assay (NF-labeled peptides, flow cytometry); assay type: cell-based; details: 5 μM, 2 h, relative to CPP9 = 100%
Protocol: The NF fluorescence intensity of the treated cells therefore reflects the amount of the peptide that has reached the cytosol and nucleus of the cells. […] Live-cell confocal microscopic analysis confirmed that CNI93 reached the interior of HeLa cells.
Cytosolic Delivery Assay. HeLa cells maintained in DMEM supplemented with 10% FBS and 1% penicillin/streptomycin were seeded into 12-well plates (1.5×10^5 cells per well) and incubated overnight at 37° C., 5% CO2. The following day, the cells were washed with DPBS and incubated with 5 μM NF-labeled peptides dissolved in DMEM containing 10% FBS, 1% penicllin/streptomycin for 2 h at 37° C. in the presence of 5% CO2. After that, the cells were washed with DPBS and harvested from the plate by treatment with 0.25% trypsin for 5 min. Cells were centrifuged at 300×RCF, washed twice with cold DPBS, and resuspended in cold DPBS for flow cytometry analysis on a BD LSR II flow cytometer followed by data analysis and gating using Flowjo. Calculation of cytosolic uptake efficiencies was carried out as previously described by Qian, Z., et al., Discovery and Mechanism of Highly Efficient Cyclic Cell-Penetrating Peptides. Biochemistry 2016, 55, 2601-2612.

[1] = tested on: LPS-induced TNFα and IL-6 secretion, mouse total lung macrophages; assay: Inhibition of TNFα and IL-6 secretion by macrophage; assay type: cell-based; details: 100 nM, 1 μM, or 10 μM for 2 h, then LPS 6 h
Protocol: Mouse total lung macrophages were obtained from 5 mice and pooled. Macrophages were pretreated with 100 nM, 1 μM, or 10 μM inhibitor for 2 h and stimulated with LPS ([…]) or PBS for 6 h. Cell supernatants were collected and analyzed for TNFα levels (FIG. 20A) or IL-6 levels (FIG. 20B) by R&D Systems TNFα ELISA kit and R&D Systems IL-6 ELISA kit.

CC[C@H](C)[C@H](NC(=O)[C@@H](NC(=O)c1cccc(Cl)c1Cl)C(C)(C)C)C(=O)N[C@H](C(=O)N[C@H](C(=O)N[C@H](C(=O)N[C@@H](CCC(N)=O)C(=O)N[C@@H](Cc1c[nH]cn1)C(=O)N[C@H](CC(C)C)C(=O)N[C@@H](CO)C(=O)NCCC(=O)N[C@@H](CCCCNC(=O)CC[C@@H]1NC(=O)[C@@H](CCCNC(=N)N)NC(=O)[C@H](CCCNC(=N)N)NC(=O)[C@@H](CCCNC(=N)N)NC(=O)[C@H](CCCNC(=N)N)NC(=O)[C@H](Cc2ccc3ccccc3c2)NC(=O)[C@@H](Cc2ccccc2)NC1=O)C(N)=O)[C@@H](C)O)[C@@H](C)CC)C(C)(C)C [CNI93] (I: {Benzoyl(2,3-Cl2)}-[Tle]I[Tle]ITQH[dL]S[βAla]K-NH2 / II: cyclo([2Nal]R[dR]R[dR]E[dF]); amide I:11-II:6 (inferred); ring closure inferred)
lower CN-binding affinity relative to peptide 14 (Calcineurin (GST-CN)): 8 fold | relative cytosolic delivery efficiency (HeLa cells): 109% | secreted amounts of TNFα and IL6 [1]: dose-dependently reduced
